Measured values as given in patent publication US9375000B2, “Pesticidal arylpyrrolidines” (Bayer Intellectual Property GmbH, priority 2011, dated 2016).

What was measured:
Assay type in all cases: in vivo
[1] = tested on: Cucurbit Leaf Beetle (Aulacophora femoralis); test: Cucurbit leaf beetle (Aulacophora femoralis) cucumber leaf dip test; conditions: after 7 days; for pest or weed control at 20 ppm: Aulacophora, foliar, 168 h, read-out: insecticidal activity
Summary of the method: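 Cucumber leaves dipped in compound formulated with DMF and polyoxyethylene alkyl phenyl ether, diluted in water, with ammonium salt or ammonium salt plus penetration enhancer at 1000 ppm added if necessary; dried leaves placed on sterilized soil with five second-instar larvae. Kept at 25° C; larval mortality counted after 7 days.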

[2] = tested on: Thrips palmi; test: Thrips palmi spray test (THRIPL); conditions: active compound concentration 20 ppm; after 6 days
Procedure: Unless not mentioned otherwise, the test solutions were prepared as follows:
Solvent: 3 parts by weight Dimethylformamide
Emulsifier: 1 part by weight Polyoxyethylene alkyl phenyl ether
In order to make an appropriate formulation of an active compound, 1 part by weight of the active compound is mixed with the above mentioned amount of solvent and emulsifier and the mixture is diluted with water to a prescribed concentration. Ammonium salt or ammonium salt and penetration enhancer in a dosage of 1000 ppm are added to the desired concentration if necessary.
The compound solutions are sprayed to a cucumber seedling (Cucumis sativus). After drying, the treated plant is placed in a plastic stand. About 100 thrips-eggs (Thrips palmi) on a piece of filter paper are attached to the plant and covered with a cage to keep 100% humidity. The plant is kept in a room at 23° C. After 6 days activity in % is evaluated by feeding damage degree. An insecticidal activity of 100 means that there was no feeding damage, whereas an insecticidal activity of 0% means that there is no difference to the untreated control.

[3] = tested on: Larvae of Spodoptera litura; test: Larvae of Spodoptera litura, method using artificial feeds; conditions: artificial feed, after 7 days; for pest or weed control at 20 ppm: Spodoptera litura, 168 h, read-out: insecticidal activity (pesticidal ratio)
Summary of the method: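 Compound formulated in dimethylformamide with polyoxyethylene alkyl phenyl ether emulsifier, water-diluted and poured onto artificial diet. Five 3rd-instar Spodoptera litura larvae per cup, held at 25° C and 50-60% humidity. Mortality after 7 days expressed as pesticidal ratio.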

[4] = tested on: Two-Spotted Spider Mite (Tetranychus urticae); test: Two-spotted spider mite (Tetranychus urticae) spray test on kidney bean; conditions: after 7 days; for pest or weed control at 20 ppm: Tetranychus urticae, 168 h, read-out: acaricidal activity
Summary of the method: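 Kidney bean plants at the two-leaf stage carried 50-100 adult mites and were sprayed one day later with compound in DMF/polyoxyethylene alkyl phenyl ether diluted in water. Ammonium salt and penetration enhancer at 1000 ppm were added if needed. Acaricidal activity (% mites killed) was scored after 7 days in a greenhouse.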

[5] = active compound concentration 20 ppm
[6] = active compound concentration 4 ppm

SMILES	insecticidal activity [1, 5]	insecticidal activity (pesticidal ratio) [3, 6]	insecticidal activity (pesticidal ratio) [3, 5]	acaricidal activity [4, 5]	other results
CCC(=O)NCc1ccc(N2CCC(c3cc(Cl)cc(Cl)c3)(C(F)(F)F)C2O)cc1F (mixture of isomers) [A1-96]	100%				insecticidal activity (by feeding damage degree) [2]: 90%
CCC(=O)NCc1ccc(N2CCC(c3ccc(F)c(C(F)(F)F)c3)(C(F)(F)F)C2O)nc1C(F)(F)F (mixture of isomers) [A3-233]	100%	100%	100%		insecticidal activity [1, 6]: 100%; insecticidal activity (by feeding damage degree) [2]: 90%
CC(C)C(=O)NCc1ccc(N2CCC(c3cc(Cl)c(Cl)c(Cl)c3)(C(F)(F)F)C2O)nc1C(F)(F)F (centres unmarked) [A3-15]		100%	100%	100%	acaricidal activity [4, 6]: 100%; insecticidal activity (by feeding damage degree) [2]: 90%
O=C(CC1CC1)NCc1ccc(N2CCC(c3cc(Cl)c(Cl)c(Cl)c3)(C(F)(F)F)C2O)nc1C(F)(F)F (centres unmarked) [A3-17]		100%	100%	100%	acaricidal activity [4, 6]: 100%; insecticidal activity (by feeding damage degree) [2]: 90%
CCC(=O)NCc1ccc(N2CCC(c3cc(C(F)(F)F)cc(C(F)(F)F)c3)(C(F)(F)F)C2O)nc1C (centres unmarked) [A3-123]	100%		100%	100%	
Cc1nc(N2CCC(c3cc(C(F)(F)F)cc(C(F)(F)F)c3)(C(F)(F)F)C2O)ccc1CNC(=O)CC1CC1 (centres unmarked) [A3-127]	100%	80%		100%	insecticidal activity [1, 6]: 100%; acaricidal activity [4, 6]: 100%
Cc1nc(N2CCC(c3cc(C(F)(F)F)cc(C(F)(F)F)c3)(C(F)(F)F)C2O)ccc1CNC(=O)CC(F)(F)F (centres unmarked) [A3-128]	100%		100%	100%	
CCc1nc(N2CCC(c3cc(C(F)(F)F)cc(C(F)(F)F)c3)(C(F)(F)F)C2O)ccc1CNC(=O)C1CC1 (centres unmarked) [A3-137]	100%		100%	100%	
O=C(NCc1ccc(N2CCC(c3cc(C(F)(F)F)cc(C(F)(F)F)c3)(C(F)(F)F)C2O)nc1Br)C1CC1 (centres unmarked) [A3-159]	100%		100%	100%	
O=C(CC(F)(F)F)NCc1ccc(N2CCC(c3cc(C(F)(F)F)cc(C(F)(F)F)c3)(C(F)(F)F)C2O)nc1Br (centres unmarked) [A3-161, N-[(6-{3-[3,5-bis(trifluoromethyl)phenyl]-2-hydroxy-3-(trifluoromethyl)pyrrolidin-1-yl}-2-bromopyridin-3-yl)methyl]-3,3,3-trifluoropropanamide]					pest or weed control at 20 ppm [1, 5]: 100%; pest or weed control at 20 ppm [4, 5]: 100%; pest or weed control at 20 ppm [3, 5]: 100%
O=C(NCc1ccc(N2CCC(c3cc(Cl)c(F)c(Cl)c3F)(C(F)(F)F)C2O)nc1Br)C1CC1 (centres unmarked) [A3-326]		100%		100%	insecticidal activity [1, 6]: 100%
CC(=O)NCc1ccc(N2CCC(c3cc(Cl)cc(Cl)c3F)(C(F)(F)F)C2O)nc1C(F)(F)F (centres unmarked) [A3-344]		100%		100%	insecticidal activity [1, 6]: 100%
CCC(=O)NCc1ccc(N2CCC(c3cc(Cl)cc(Cl)c3F)(C(F)(F)F)C2O)nc1C(F)(F)F (centres unmarked) [A3-345]		100%		100%	insecticidal activity [1, 6]: 100%
CC(=O)NCc1cc(F)c(N2CCC(c3cc(Cl)c(Cl)c(Cl)c3)(C(F)(F)F)C2O)nc1Cl (centres unmarked) [A3-366]		100%			insecticidal activity (by feeding damage degree) [2]: 98%
CCC(=O)NCc1cc(F)c(N2CCC(c3cc(Cl)c(Cl)c(Cl)c3)(C(F)(F)F)C2O)nc1Cl (centres unmarked) [A3-367]		100%			insecticidal activity (by feeding damage degree) [2]: 90%
O=C(NCc1cnc(N2CCC(c3cc(Cl)c(Cl)c(Cl)c3)(C(F)(F)F)C2O)nc1C(F)(F)F)C1CC1 (centres unmarked) [A4-16, N-({2-[2-hydroxy-3-(3,4,5-trichlorophenyl)-3-(trifluoromethyl)-pyrrolidin-1-yl]-4-(trifluoromethyl)pyrimidin-5-yl}methyl)cyclopropanecarboxamide]					pest or weed control at 20 ppm [1, 5]: 100%; pest or weed control at 20 ppm [4, 5]: 100%; pest or weed control at 20 ppm [3, 5]: 100%
O=C(CC(F)(F)F)NCc1cnc(N2CCC(c3cc(Cl)c(Cl)c(Cl)c3)(C(F)(F)F)C2O)nc1C(F)(F)F (centres unmarked) [A4-18]	100%		100%	100%	
CSCC(=O)NCc1cnc(N2CCC(c3cc(Cl)c(Cl)c(Cl)c3)(C(F)(F)F)C2O)nc1C(F)(F)F (centres unmarked) [A4-20]	100%		100%	100%	
C[S+]([O-])CC(=O)NCc1cnc(N2CCC(c3cc(Cl)c(Cl)c(Cl)c3)(C(F)(F)F)C2O)nc1C(F)(F)F (centres unmarked) [A4-21]	100%		100%	100%	
CS(=O)(=O)CC(=O)NCc1cnc(N2CCC(c3cc(Cl)c(Cl)c(Cl)c3)(C(F)(F)F)C2O)nc1C(F)(F)F (centres unmarked) [A4-22]	100%		100%	100%	
CCC(=O)NCc1cnc(N2CCC(c3cc(C(F)(F)F)cc(C(F)(F)F)c3)(C(F)(F)F)C2O)nc1C(F)(F)F (centres unmarked) [A4-24]	100%		100%	100%	
O=C(NCc1cnc(N2CCC(c3cc(C(F)(F)F)cc(C(F)(F)F)c3)(C(F)(F)F)C2O)nc1C(F)(F)F)C1CC1 (centres unmarked) [A4-27]	100%		100%	100%	
O=C(CC(F)(F)F)NCc1cnc(N2CCC(c3cc(C(F)(F)F)cc(C(F)(F)F)c3)(C(F)(F)F)C2O)nc1C(F)(F)F (centres unmarked) [A4-29]	100%		100%	100%	
COCCC(=O)NCc1cnc(N2CCC(c3cc(C(F)(F)F)cc(C(F)(F)F)c3)(C(F)(F)F)C2O)nc1C(F)(F)F (centres unmarked) [A4-30]	100%		100%	100%	
CSCC(=O)NCc1cnc(N2CCC(c3cc(C(F)(F)F)cc(C(F)(F)F)c3)(C(F)(F)F)C2O)nc1C(F)(F)F (centres unmarked) [A4-31]	100%		100%	100%	
C[S+]([O-])CC(=O)NCc1cnc(N2CCC(c3cc(C(F)(F)F)cc(C(F)(F)F)c3)(C(F)(F)F)C2O)nc1C(F)(F)F (centres unmarked) [A4-32]	100%		100%	100%	
CS(=O)(=O)CC(=O)NCc1cnc(N2CCC(c3cc(C(F)(F)F)cc(C(F)(F)F)c3)(C(F)(F)F)C2O)nc1C(F)(F)F (centres unmarked) [A4-33]	100%		100%	100%	
CCC(=O)NCc1cnc(N2CCC(c3cc(Cl)c(Cl)c(Cl)c3)(C(F)(F)F)C2O)nc1C(F)F (centres unmarked) [A4-216]	100%	100%			acaricidal activity [4, 6]: 100%
